Where two headings read alike, the source gives them in different places.
System: modified Shay rat
Experiment: Antiulcerogenic and secretion-inhibiting action on the modified Shay rat (pylorus ligature plus oral acetylsalicylic acid)
Assay type: in vivo
Conditions: for Inhibition of acid secretion: Reduction in HCl secretion / Protective action on stomach: Reduction in lesion index: 4 hours; for ED50: Rattus norvegicus, 4 h, i.d.
Description: Ulcers are provoked in rats which have fasted for 24 hours (female, 180-200 g, 4 animals per cage on high grid) by pylorus ligature (under diethyl ether anaesthesia) and oral administration of 100 mg/10 ml/kg acetylsalicylic acid. The substances to be tested are administered intraduodenally (2,5 ml/kg) immediately following t[e pylorus ligature. The wound is closed by means of Michel clamps. 4 hours later, the animals are sacrificed under ether anaesthesia by atlas dislocation and the stomach is resected. The stomach is opened along the greater curvature and clamped on a cork sheet after first determining the amount of secreted gastric juice (volume) and subsequently its HCl content (titration with sodium hydroxide solution). Using a stereomicroscope at 10×magnification, the number and size (=diameter) of ulcers present are determined. The product of severity (according to the scale of points below) and number of ulcers serves as an individual lesion index. |Scale of points: | No ulcers 0 | Ulcer diameter | 0.1-1.4 mm | 1 | 1.5-2.4 mm | 2 | 2.5-3.4 mm | 3 | 3.5-4.4 mm | 4 | 4.5-5.4 mm | 5 | >5.5 mm 6 The reduction in the mean lesion index of each treated group compared with the control group (=100%) serves as a measure of the antiulcerogenic effect. The ED50 designates the dose which reduces the mean lesion index or the HCl secretion by 50% compared with the control.

[1] = 0.3 μmol/kg i.d. (intraduodenal)
[2] = 1.0 μmol/kg i.d. (intraduodenal)
[3] = 3.0 μmol/kg i.d. (intraduodenal)
[4] = 10.0 μmol/kg i.d. (intraduodenal)
[5] = 30.0 μmol/kg i.d. (intraduodenal)
[6] = dose (interpolated) which reduces the HCl secretion by 50% compared with control group, read-out: Inhibition of acid secretion: Approx. ED50
[7] = dose (interpolated) which reduces the lesion index by 50% compared with control group, read-out: Protective action on stomach: Approx. ED50
[8] = 0.6 μmol/kg i.d. (intraduodenal)
[9] = 1.5 μmol/kg i.d. (intraduodenal)
[10] = 2.0 μmol/kg i.d. (intraduodenal)
[11] = 6.0 μmol/kg i.d. (intraduodenal)
[12] = 0.1 μmol/kg i.d. (intraduodenal)

| SMILES | Inhibition of acid secretion: Reduction in HCl secretion [1] | Protective action on stomach: Reduction in lesion index [1] | Inhibition of acid secretion: Reduction in HCl secretion [2] | Protective action on stomach: Reduction in lesion index [2] | Inhibition of acid secretion: Reduction in HCl secretion [3] | Protective action on stomach: Reduction in lesion index [3] | Inhibition of acid secretion: Reduction in HCl secretion [4] | Protective action on stomach: Reduction in lesion index [4] | Inhibition of acid secretion: Reduction in HCl secretion [5] | Protective action on stomach: Reduction in lesion index [5] | ED50 [6] | ED50 [7] | other results |
| --- | --- | --- | --- | --- | --- | --- | --- | --- | --- | --- | --- | --- | --- |
| Cc1nc2c(O[C@@H]3c4ccccc4C[C@H]3O)cccn2c1C (relative stereo) [Example 2] | -20% | 25% | 23% | 47% | 52% | 81% | 47% | 94% | 95% | 100% | ~4.27 µmol/kg | ~0.84 µmol/kg | – |
| Cc1nc2c(O[C@@H]3c4ccccc4C[C@H]3O)cccn2c1CC#N (relative stereo) [Example 4, 3-cyanomethyl-8-(2-(trans)-hydroxy-2,3-dihydro-1-indenyloxy)-2-methyl-imidazo[1,2-a]pyridine] | -26% | 18% | 22% | 35% | 63% | 93% | – | – | 99% | 100% | ~1.95 µmol/kg | ~1.04 µmol/kg | Inhibition of acid secretion: Reduction in HCl secretion [8]: 12%; Protective action on stomach: Reduction in lesion index [8]: 33%; Inhibition of acid secretion: Reduction in HCl secretion [9]: 50%; Protective action on stomach: Reduction in lesion index [9]: 94%; Inhibition of acid secretion: Reduction in HCl secretion [10]: 51%; Protective action on stomach: Reduction in lesion index [10]: 98%; Inhibition of acid secretion: Reduction in HCl secretion [11]: 73%; Protective action on stomach: Reduction in lesion index [11]: 100% |
| Cc1nc2c(O[C@@H]3c4ccccc4C[C@H]3O)cccn2c1CO (relative stereo) [Example 8, 3-hydroxymethyl-8-(2-(trans)-hydroxy-2,3-dihydro-1-indenyloxy)-2-methyl-imidazo[1,2-a]pyridine] | 19% | 43% | 25% | 47% | 20% | 74% | 35% | 94% | 98% | 100% | ~12.9 µmol/kg | ~0.69 µmol/kg | Inhibition of acid secretion: Reduction in HCl secretion [12]: 10%; Protective action on stomach: Reduction in lesion index [12]: 13% |
| Cc1nc2c(O[C@@H]3c4ccccc4C[C@H]3O)cccn2c1N.Cl (relative stereo) [Example 11, 3-amino-8-(2-(trans)-hydroxy-2,3-dihydro-1-indenyloxy)-2-methyl-imidazo[1,2-a]pyridine-hydrochloride] | – | – | 16% | 27% | 32% | 71% | 67% | 100% | – | – | ~6.02 µmol/kg | ~1.69 µmol/kg | – |
| Cc1nc2c(O[C@@H]3c4ccc(F)cc4C[C@H]3O)cccn2c1CO (relative stereo) [Example 30, 8-(5-fluoro-2-(trans)-hydroxy-2,3-dihydro-1-indenyloxy)-3-hydroxymethyl-2-methyl-imidazo[1,2-a]pyridine] | – | – | – | – | 41% | 86% | – | – | – | – | – | – | – |
